Test results published in patent US12714706B2, “Methods of treating small cell lung cancer with lurbinectedin formulations” (PHARMA MAR, S.A., priority 2019, dated 2026).
Where “and” joins values, the source holds several entries; their conditions need not be identical. Equal entries are not always repeated. Where two headings read alike, the source gives them in different places.

Legend:
[1] = irinotecan 125 mg/m2 (Camptosar label); n=64; mean (SD); cited from earlier work
[2] = Lurbinectedin plus irinotecan trial: pharmacokinetics of lurbinectedin, irinotecan and SN-38; conditions: combination: lurbinectedin 1.0-2.4 mg/m2 + irinotecan 75 mg/m2; n=39; mean (SD)
[3] = Direct dissolution of lurbinectedin at 0.5 mg/mL in 0.03 M sodium lactate buffer pH 4; assay type: physicochemical
Description: In embodiments, the lurbinectedin to be dissolved is at least partially crystalline. The lurbinectedin to be dissolved may be in the solid state form(s) described herein.

[4] = DVS (dynamic vapor sorption); assay type: physicochemical
Description: DVS experiments were carried out with a Projekt Messtechnik SPS 11-100n multi-sample water vapor sorption analyzer. The sample was allowed to equilibrate at 50% r.h. before starting a pre-defined humidity program. The program was: • 2 h at 50% r.h. • 50 to 0% r.h. (5%/h) • 5 h at 0% r.h. • 0 to 95% r.h (5%/h) • 5 h at 95% r.h. • 95 to 50% (5%/h) • 2 h at 50% r.h.

[5] = DSC; assay type: physicochemical
Description: DSC experiments were carried out with a Perkin Elmer DSC 7 using closed Au crucibles with a heating range between −50 to 250° C. and a heating rate of 10 or 20° C./min.

[6] = TG-FTIR; assay type: physicochemical
Description: TG-FTIR experiments were conducted with a Thermo-Microbalance TG-209 (Netzsch) equipped with a FT-IR Spectrometer Vector 22 (Bruker) using Al crucible (open or with microhole) under N2 atmosphere with a heating range between 25 and 250° C. and a heating rate of 10° C./min.

[7] = Electrostatic charge measurements with a Faraday cage; assay type: physicochemical; conditions: dry nitrogen, 95% confidence
Description: This technique consists in placing the sample to be measured (q) in the interior of the inner sphere (a) and measuring the difference of potential induced between sphere (a) and another conductor of reference, sphere (b). The external sphere (c) is grounded in order to shield the system.
Measurements were carried out under controlled atmosphere of dry nitrogen in order to avoid the effect of ambient humidity on the electrostatic charge of the samples. Samples were introduced in glass capsules using non-conductor instrumental to avoid loses of electrostatic charge. The capsules loaded with the samples were introduced in the Faraday cage through a grounded conductor tube to avoid parasitic static charges in the glass capsule. The entry and removal of the capsules was done with a computer-controlled servo engine, in order to ensure a constant rate of introduction and removal of the capsules in each measurement to minimize the creation of static charges due to friction of the insulator elements.
Results: Several measurements with different amounts of material were carried out for each batch of each form of lurbinectedin. Before loading the capsules, they were washed and their remaining static charge was measured in order to correct the levels. Each sample was introduced and removed five times and, after each introduction, several consecutive measurements were taken in order to average any possible drift effect.
The data was fitted by lineal regression (dashed lines in FIGS. 9a and 9b) to obtain the charge density (Q/m) as the slope of the line.

[8] = Analytical results and impurity profile of batches of Form A and Form B of lurbinectedin; assay type: physicochemical; set-up: Impurity RRT approx. 1.10-1.11 / Impurity RRT approx. 1.12 / Impurity RRT approx. 1.27-1.34 / Impurity RRT approx. 1.29-1.30 / Impurity RRT approx. 1.30-1.32 / Impurity RRT approx. 1.28-1.37 / Impurity RRT approx. 2.37 / Impurity RRT approx. 2.41-2.52 / Impurity RRT approx. 2.85 / Impurity RRT approx. 0.66-0.69 / Impurity RRT approx. 0.72-0.76: unit not given here; conditions: for Impurity RRT aprox 0.66-0.69 / Impurity RRT aprox 0.72-0.76 / Impurity RRT aprox 0.90-0.92: batches of Form B
Description: Several batches of Form A of lurbinectedin were manufactured by this method.
Several batches of Form B of lurbinectedin were manufactured by this method.

[9] = test system: SCLC; test: Post-hoc exploratory analysis of response in SCLC patients who had previously received immunotherapy; assay type: in vivo, human; conditions: individual SCLC patients, therapy before lurbinectedin
Description: Post-hoc exploratory analysis was done on the response in patients who had previously received immunotherapy (n=8).

[10] = batches of Form A of lurbinectedin, listed as P04
[11] = impurity profile, batches of Form A, listed as P04
[12] = batches of Form A of lurbinectedin, listed as R05
[13] = impurity profile, batches of Form A, listed as R05
[14] = batches of Form B of lurbinectedin, listed as 1924128-LT
[15] = impurity profile, listed as 1924128-LT
[16] = batches of Form B of lurbinectedin
[17] = batches of Form B of lurbinectedin, listed as 1924129-LT
[18] = impurity profile, listed as 1924129-LT

## CCc1c2c(nc3ccc(O)cc13)-c1cc3c(c(=O)n1C2)COC(=O)[C@]3(O)CC [SN-38]
[1]
  Cmax: 26.3 (11.9) ug/L
  HL: 21.0 (20) h
[2]
  CL: 810.3 (574) L/h
  Cmax: 18.1 (7.7) ug/L
  HL: 18.6 (9.1) h
  Vz: 18232.3 (8208.4) L

## COc1ccc2[nH]c3c(c2c1)CCN[C@]31CS[C@@H]2c3c(OC(C)=O)c(C)c4c(c3[C@H](COC1=O)N1[C@@H]2[C@H]2c3c(cc(C)c(OC)c3O)C[C@@H]([C@@H]1O)N2C)OCO4 [Form B of lurbinectedin]
[3]; 0.5 mg/mL in 0.03 M sodium lactate buffer pH 4, in 2 hours
  Fraction of the target concentration reached: 60-70%
[4]
  Deliquescence by DVS: not deliquescent
  Hygroscopicity by DVS: hygroscopic
[4]; 50 to 96% r.h.
  DVS mass change Δm: 4%
[5]
  Temperature at which degradation begins by DSC: above 130 °C
[6]
  Degradation temperature by TG-FTIR: above 150 °C
  Release of water by TG-FTIR: 2.6%

## COc1ccc2[nH]c3c(c2c1)CCN[C@]31CS[C@@H]2c3c(OC(C)=O)c(C)c4c(c3[C@H](COC1=O)N1[C@@H]2[C@H]2c3c(cc(C)c(OC)c3O)C[C@@H]([C@@H]1O)N2C)OCO4 [Form A of lurbinectedin]
[3]; 0.5 mg/mL in 0.03 M sodium lactate buffer pH 4
  Time to complete direct dissolution: approximately 30 minutes

## COc1ccc2[nH]c3c(c2c1)CCN[C@]31CS[C@@H]2c3c(OC(C)=O)c(C)c4c(c3[C@H](COC1=O)N1[C@@H]2[C@H]2c3c(cc(C)c(OC)c3O)C[C@@H]([C@@H]1O)N2C)OCO4 [Batch P04]
[7]; listed as P04
  Average charge density (Q/m): 43.1 ± 3.86 nC/g
  Dispersion of charge density (Q/m): 7.6 ± 2.8 nC/g
[8]; batches of Form A of lurbinectedin
  Residual Solvents Ethyl acetate: <LOQ
[8]; [10]
  Impurities Total: 0.2 % Area
  Residual Solvents Acetonitrile: <LOQ
  Residual Solvents Dichloro-methane: <LOQ
  Residual Solvents Hexane: <LOQ
  Residual Solvents Methanol: 1.6 % w/w
  Residual Solvents Pentane: 0.5 % w/w
  Residual Solvents Total: 2.1 % w/w
  Water Content: 1.6 % w/w
[8]; [11]
  Impurity RRT approx. 0.72-0.76: 0.09
  Impurity RRT approx. 1.29-1.30: 0.10

## COc1ccc2[nH]c3c(c2c1)CCN[C@]31CS[C@@H]2c3c(OC(C)=O)c(C)c4c(c3[C@H](COC1=O)N1[C@@H]2[C@H]2c3c(cc(C)c(OC)c3O)C[C@@H]([C@@H]1O)N2C)OCO4 [Batch R05]
[7]; listed as R05
  Average charge density (Q/m): 64.02 ± 7.98 nC/g
  Dispersion of charge density (Q/m): 15.23 ± 5.64 nC/g
[8]; [12]
  Impurities Total: 0.4 % Area
  Residual Solvents Acetonitrile: <LOQ
  Residual Solvents Dichloro-methane: <LOQ
  Residual Solvents Hexane: <LOQ
  Residual Solvents Methanol: 2.2 % w/w
  Residual Solvents Pentane: 0.3 % w/w
  Residual Solvents Total: 2.5 % w/w
  Water Content: 1.1 % w/w
[8]; impurity profile, batches of Form A
  Impurity RRT approx. 2.37: 0.13
[8]; [13]
  Impurity RRT approx. 0.72-0.76: 0.10
  Impurity RRT approx. 1.10-1.11: 0.09
  Impurity RRT approx. 1.29-1.30: 0.05

## Nivolumab
[9]; resistant disease
  Last prior therapy: TTP: 2.2 months and 4.1 months and 2.5 months
[9]; sensitive disease
  Last prior therapy: TTP: 1.8 months and 1.4 months

## COc1ccc2[nH]c3c(c2c1)CCN[C@]31CS[C@@H]2c3c(OC(C)=O)c(C)c4c(c3[C@H](COC1=O)N1[C@@H]2[C@H]2c3c(cc(C)c(OC)c3O)C[C@@H]([C@@H]1O)N2C)OCO4 [Batch 1924128-LT]
[7]; listed as 1924128-LT
  Average charge density (Q/m): 4.3 ± 0.4 nC/g
  Dispersion of charge density (Q/m): 1.01 ± 0.3 nC/g
[8]; [14]
  Total Impurities: 0.4 % Area
  Water Content: 3.0 % w/w
[8]; [15]
  Impurity RRT aprox 0.66-0.69: 0.06 % area
  Impurity RRT aprox 0.72-0.76: 0.25 % area
  Impurity RRT aprox 0.90-0.92: 0.07 % area

## COc1ccc2[nH]c3c(c2c1)CCN[C@]31CS[C@@H]2c3c(OC(C)=O)c(C)c4c(c3[C@H](COC1=O)N1[C@@H]2[C@H]2c3c(cc(C)c(OC)c3O)C[C@@H]([C@@H]1O)N2C)OCO4 [Batch 1924129-LT]
[7]; listed as 1924129-LT
  Average charge density (Q/m): 4.96 ± 2.0 nC/g
  Dispersion of charge density (Q/m): 3.4 ± 1.4 nC/g
[8]; [16]
  Residual Solvents Acetonitrile: <LOQ
  Residual Solvents CH2Cl2: <LOQ
  Residual Solvents Methanol: <LOQ
  Residual Solvents Pentane: <LOQ
  Residual Solvents Total: 0.0 % w/w
[8]; [17]
  Total Impurities: 0.4 % Area
  Water Content: 4.1 % w/w
[8]; [18]
  Impurity RRT aprox 0.66-0.69: 0.07 % area
  Impurity RRT aprox 0.72-0.76: 0.24 % area
  Impurity RRT aprox 0.90-0.92: 0.08 % area

## CCc1c2c(nc3ccc(OC(=O)N4CCC(N5CCCCC5)CC4)cc13)-c1cc3c(c(=O)n1C2)COC(=O)[C@]3(O)CC [irinotecan, reference compound]
[1]
  HL: 11.7 (9) h
